In patent US20240309014A1, “MACROCYCLIC COMPOUNDS AND USES THEREOF” (President and Fellows of Harvard College, priority 2017, published 2024):

Assays:
[1] = test system: murine undifferentiated colon carcinoma cell line CT26; assay: CT26 subcutaneous syngeneic model in combination with anti-mPD-1 antibody; type: in vivo, BALB/c mice
Protocol: A murine undifferentiated colon carcinoma cell line CT26, which had been cultured in an RPMI-1640 medium containing 10% FBS, and penicillin and streptomycin, was adjusted to a concentration of 2×10^7 cells/mL with Hank's Balanced Salt Solution to prepare a cell suspension. On day 1, the cell suspension was inoculated in a volume of 100 μL into a subcutaneous part of a right flank of BALB/c mice, 6 weeks of ages (BALB/cAnNCrlCrlj, female, Charles River Laboratories Japan, Inc.). Two days after the cell inoculation, the mice were randomly divided into four groups and each group consists of 8 mice. The shortest diameter and the longest diameter of a tumor in each mouse were measured by using an electronic digital caliper (Digimatic™ caliper, Mitutoyo Corporation), so as to calculate the volume of the tumor in accordance with the following calculation formula: […]
The test compound was intravenously administered at 0.09 mg/kg on days 3 and 11. Anti-mPD-1 antibody (BE0146, Bio X Cell) was intravenously administered at 10 mg/kg on days 3, 7, 11, and 15.

[2] = test system: KPL-4 subcutaneous xenograft; assay: KPL-4 subcutaneous xenograft model in combination with trastuzumab; type: in vivo, nude mice
Protocol: A human HER-2 positive breast cancer cell line KPL-4, which had been cultured in an RPMI-1640 medium containing 10% FBS, and penicillin and streptomycin, was adjusted to a concentration of 1×10^8 cells/mL with Hank's Balanced Salt Solution to prepare a cell suspension. The cell suspension was inoculated in a volume of 100 μL into a subcutaneous part of a right flank of nude mice, 7 weeks of ages (CAnN.Cg-Foxnlnu/CrlCrlj, female, Charles River Laboratories Japan, Inc.). Sixteen days after the cell inoculation, the shortest diameter and the longest diameter of a tumor in each mouse were measured by using an electronic digital caliper (Digimatic™ caliper, Mitutoyo Corporation), so as to calculate the volume of the tumor in accordance with the following calculation formulae: […]
(§1) On the basis of the volumes of tumors obtained on the first day of administration, the mice were grouped such that averages of the tumor volumes were substantially equal among the groups. The experiment was conducted on groups each consisting of 6 mice. Each test compound was dissolved in DMSO and a solution was stored at the freezer before use. Immediately before the administration, the stock solution was diluted in saline.

[3] = test system: human endometrial cancer cell line AN3CA xenograft; assay: AN3CA endometrial cancer xenograft as monotherapy (FIG. 18); type: in vivo, nude mice; conditions: 180 μg/kg i.v. Day 1 and Day 8
Protocol: A human endometrial cancer cell line AN3CA, which had been cultured in an E-MEM containing 10% FBS, and penicillin-streptomycin, was adjusted to a concentration of 1.4×10^8 cells/mL with Hanks' Balanced Salt Solution to prepare a cell suspension, and the suspension was mixed with Geltrex® (Thermo Fisher Scientific Inc., #A1413202) in a ratio of 1:1 to prepare a cell suspension in a concentration of 7×10^7 cells/mL. The cell suspension was inoculated in a volume of 100 μL into a subcutaneous part of a right flank of nude mice, 6 weeks of ages (CAnN.Cg-Foxnlnu/CrlCrlj, female, Charles River Laboratories Japan Inc.). Twelve days after cell inoculation (Day 1), the shortest diameter and the longest diameter of a tumor in each mouse were measured by using an electronic digital caliper (Digimatic™ caliper, Mitutoyo Corporation), so as to calculate the volume of the tumor in accordance with the following calculation formulae: […]
as §1, with “on Day 1,” for “on the first day of administration,”, “of five” for “of 6”, “mice. The” for “mice. Each”, “stored in” for “stored at”, “diluted with” for “diluted in”, “saline. […]” for “saline.”

C=C1C[C@@H]2CC[C@@]34C[C@H]5O[C@H]6[C@@H](O3)[C@H]3O[C@H](CC[C@@H]3O[C@H]6C5O4)CC(=O)O[C@@H]3[C@@H](C)[C@@H]4O[C@@H]5C[C@]6(C[C@@H]7O[C@]8(C[C@H](C)[C@@H]9O[C@H](CN)[C@H](O)C[C@@H]9O8)C[C@H](C)[C@@H]7O6)O[C@@H]5C[C@@H]4O[C@H]3C[C@H]3O[C@@H](CC[C@@H]1O2)C[C@@H](C)C3=C (stereo in doubt) [Compound (1)]
Inhibition of tumor growth on day 15 (%) ([1]; 0.09 mg/kg i.v. days 3 and 11 + anti-mPD-1 antibody 10 mg/kg): 62%
Inhibition of tumor growth on day 15 (%) ([1]; single agent: anti-mPD-1 antibody 10 mg/kg or Compound (1) 0.09 mg/kg): 30%
Tumor Regression (%) ([2]; 0.09 mg/kg i.v. + trastuzumab 10 mg/kg): 83%
Tumor Regression (%) ([2]; 0.09 mg/kg i.v., without trastuzumab): 43%
Tumor Regression (%) ([2]; 0.18 mg/kg i.v. + trastuzumab 10 mg/kg): 100%
Tumor Regression (%) ([2]; 0.18 mg/kg i.v., without trastuzumab): 87%
antitumor activity [3]: tumor regression
